Measured values reported in ChEMBL document CHEMBL1138709, “Biological evaluation of novel estrogen-platinum(II) hybrid molecules on uterine and ovarian cancers-molecular modeling studies” (Bioorg Med Chem Lett, 2004).

Legend:
[1] = inhibitory concentration against estrogen independent human uterus cancer cell line HEC-1-A; type: functional, cell-based; conditions: cancer cell lines
[2] = test system: HeLa; test: inhibitory concentration against estrogen independent human uterus cancer cell line HeLa; type: functional, cell-based
[3] = inhibitory concentration against estrogen independent human uterus cancer cell line KLE; type: functional, cell-based; conditions: cancer cell lines
[4] = molecular target: T1, Estrogen receptor (Homo sapiens, UniProt Q92731+P03372); test: Inhibition of estrogen dependent human uterus cancer RL-95-2 cell proliferation; type: functional
[5] = molecular target: T1, Estrogen receptor; test: Inhibition of estrogen dependent human uterus cancer Ishikawa cell proliferation; type: functional, cell-based
[6] = test system: A2780; test: inhibitory concentration against estrogen independent human ovarian cancer cell line A2780cp; type: functional, cell-based
[7] = test system: A2780; test: inhibitory concentration against estrogen independent human ovarian cancer cell line A2780wt; type: functional, cell-based
[8] = molecular target: T1, Estrogen receptor; test: Inhibition of estrogen dependent human ovarian cancer SKOV-3 cell proliferation; type: functional, cell-based; conditions: sk-ov-3
[9] = molecular target: T1, Estrogen receptor; test: Inhibition of estrogen dependent human ovarian cancer OVCAR-3 cell proliferation; type: functional, cell-based

CISPLATIN showed an IC50 [1] of 11.7 µM, an IC50 [2] of 3.6 µM and an IC50 [3] of 12.5 µM. The IC50 [4] was 10.3 µM, the IC50 [5] was 7.9 µM and the IC50 [6] was 6.5 µM. For the same sequence, the IC50 [7] was 0.7 µM, the IC50 [8] was 5.8 µM and the IC50 [9] was 2.5 µM.
